Earlier results as cited in patent US20250345309A1, “IMMUNE HEALTH IMPROVERS” (Amazentis SA, priority 2024, published 2025).

Conditions: over 4 months, middle-aged adults (Singh et al. 2022); cited from earlier work

O=c1oc2cc(O)ccc2c2ccc(O)cc12 [Urolithin A (UA)]
Safety and tolerability of long-term oral administration: safe and well tolerated
